Test results published in US20260285850A1, “SUBSTITUTED OXAZOLIDINONES AND IMIDAZOLINONES AS HERBICIDES” (FMC CORPORATION, priority 2023, published 2026).

Tests used:
Assay type in all cases: in vivo
[1] = test system: ducksalad (Heteranthera limosa); assay: Test B flooded paddy test, visual plant response rating 0-100; settings: 250 g ai/ha, Flood, applied to paddy water, evaluated after 13 days
Method in brief: (§1)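 Visual evaluation after 13 days. Water-applied treatment, 3 cm flood depth held constant, plants at 2-leaf stage at treatment.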

[2] = test system: sedge, umbrella (small-flower umbrella sedge, Cyperus difformis); assay: as above; settings: 250 g ai/ha, Flood, applied to paddy water, evaluated after 13 days
Method in brief: as §1

rice (Oryza sativa) = assay: as above; settings: 250 g ai/ha, Flood, applied to paddy water, evaluated after 13 days
Method in brief: as §1

[3] = test system: barnyardgrass (Echinochloa crusgalli); assay: as above; settings: 250 g ai/ha, Flood, applied to paddy water, evaluated after 13 days
Method in brief: as §1

soybean (Glycine max) [4] = assay: Test A preemergence soil spray, visual injury rating 0-100; settings: 10 days
Method in brief: (§2)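 Preemergence directed soil spray or postemergence spray (2-10 cm, 1-2 leaf); loam/sand mix; compound in non-phytotoxic solvent + surfactant. Greenhouse, 10 d. Visual injury vs untreated, 0 = none, 100 = complete control.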

[5] = test system: barnyardgrass (Echinochloa crus-galli); assay: as above; settings: 10 days
Method in brief: as §2

[6] = test system: oat, wild (wild oat, Avena fatua); assay: as above; settings: 10 days
Method in brief: as §2

[7] = test system: green foxtail (Setaria viridis); assay: as above; settings: 10 days
Method in brief: as §2

[8] = test system: palmer (palmer amaranth, palmer pigweed, Amaranthus palmeri); assay: as above; settings: 10 days
Method in brief: as §2

[9] = test system: ryegrass, Italian (italian ryegrass, Lolium multiflorum); assay: as above; settings: 10 days
Method in brief: as §2

[10] = test system: wheat (Triticum aestivum); assay: as above; settings: 10 days
Method in brief: as §2

kochia (Bassia scoparia) [11] = assay: as above; settings: 10 days
Method in brief: as §2

corn (Zea mays) [12] = assay: as above; settings: 10 days
Method in brief: as §2

[13] = test system: ragweed (common ragweed, Ambrosia artemisiifolia); assay: as above; settings: 10 days
Method in brief: as §2

[14] = test system: blackgrass (Alopecurus myosuroides); assay: as above; settings: 10 days
Method in brief: as §2

soybean (Glycine max) [15] = assay: Test A postemergence application, visual injury rating 0-100
Method in brief: as §2

[16] = test system: barnyardgrass (Echinochloa crus-galli); assay: as above
Method in brief: as §2

[17] = test system: oat, wild (wild oat, Avena fatua); assay: as above
Method in brief: as §2

[18] = test system: green foxtail (Setaria viridis); assay: as above
Method in brief: as §2

[19] = test system: palmer (palmer amaranth, palmer pigweed, Amaranthus palmeri); assay: as above
Method in brief: as §2

[20] = test system: ryegrass, Italian (italian ryegrass, Lolium multiflorum); assay: as above
Method in brief: as §2

[21] = test system: wheat (Triticum aestivum); assay: as above
Method in brief: as §2

[22] = test system: galium (catchweed bedstraw, Galium aparine); assay: as above
Method in brief: as §2

kochia (Bassia scoparia) [23] = assay: as above
Method in brief: as §2

[24] = test system: horseweed (Erigeron canadensis); assay: as above
Method in brief: as §2

corn (Zea mays) [25] = assay: as above
Method in brief: as §2

[26] = test system: ragweed (common ragweed, Ambrosia artemisiifolia); assay: as above
Method in brief: as §2

[27] = test system: blackgrass (Alopecurus myosuroides); assay: as above
Method in brief: as §2

[28] = 62 g ai/ha, 0 = no effect, 100 = complete control
[29] = 62 g ai/ha, postemergence, 10 days, 0 = no effect, 100 = complete control
[30] = Postemergence, 16 g ai/ha, greenhouse 10 days, 0 no effect, 100 complete control

Compound: COC(=O)C1C=CC(NC(=O)C2(C)CN(c3cc(Cl)c(F)c(Cl)c3)C(=O)O2)C1 (stereo not shown) [Compound 150]
- Plant response rating, Ducksalad (0 to 100 scale, 0 is no effect and 100 is complete control) [1]: 85
- Plant response rating, Sedge, Umbrella (0 to 100 scale, 0 is no effect and 100 is complete control) [2]: 75
- Plant response rating, Rice (0 to 100 scale, 0 is no effect and 100 is complete control) (rice (Oryza sativa)): 30
- Plant response rating, Barnyardgrass (0 to 100 scale, 0 is no effect and 100 is complete control) [3]: 65
- Soybean plant response rating (soybean (Glycine max) [4]; 16 g ai/ha, 0 to 100 scale): 0
- Soybean plant response rating (0-100) (soybean (Glycine max) [4]; [28]): 0
- Barnyardgrass plant response rating ([5]; 16 g ai/ha, 0 to 100 scale): 0
- Barnyardgrass plant response rating (0-100) [5, 28]: 90
- Oat, Wild plant response rating ([6]; 16 g ai/ha, 0 to 100 scale): 0
- Oat, Wild plant response rating (0-100) [6, 28]: 10
- Foxtail, Green plant response rating ([7]; 16 g ai/ha, 0 to 100 scale): 0
- Foxtail, Green plant response rating (0-100) [7, 28]: 90
- Pigweed, Palmer plant response rating ([8]; 16 g ai/ha, 0 to 100 scale): 10
- Pigweed, Palmer plant response rating (0-100) [8, 28]: 90
- Ryegrass, Italian plant response rating ([9]; 16 g ai/ha, 0 to 100 scale): 10
- Ryegrass, Italian plant response rating (0-100) [9, 28]: 50
- Wheat plant response rating ([10]; 16 g ai/ha, 0 to 100 scale): 0
- Wheat plant response rating (0-100) [10, 28]: 80
- Kochia plant response rating (kochia (Bassia scoparia) [11]; 16 g ai/ha, 0 to 100 scale): 20
- Kochia plant response rating (0-100) (kochia (Bassia scoparia) [11]; [28]): 90
- Corn plant response rating (corn (Zea mays) [12]; 16 g ai/ha, 0 to 100 scale): 0
- Corn plant response rating (0-100) (corn (Zea mays) [12]; [28]): 70
- Ragweed plant response rating ([13]; 16 g ai/ha, 0 to 100 scale): 0
- Ragweed plant response rating (0-100) [13, 28]: 0
- Blackgrass plant response rating ([14]; 16 g ai/ha, 0 to 100 scale): 0
- Blackgrass plant response rating (0-100) [14, 28]: 50
- Soybean plant response rating (0-100) (soybean (Glycine max) [15]; [29]): 70
- Soybean plant response rating (0 to 100 scale) (soybean (Glycine max) [15]; [30]): 60
- Barnyardgrass plant response rating (0-100) [16, 29]: 100
- Barnyardgrass plant response rating (0 to 100 scale) [16, 30]: 90
- Oat, Wild plant response rating (0-100) [17, 29]: 90
- Oat, Wild plant response rating (0 to 100 scale) [17, 30]: 60
- Foxtail, Green plant response rating (0-100) [18, 29]: 90
- Foxtail, Green plant response rating (0 to 100 scale) [18, 30]: 20
- Pigweed, Palmer plant response rating (0-100) [19, 29]: 60
- Pigweed, Palmer plant response rating (0 to 100 scale) [19, 30]: 40
- Ryegrass, Italian plant response rating (0-100) [20, 29]: 80
- Ryegrass, Italian plant response rating (0 to 100 scale) [20, 30]: 50
- Wheat plant response rating (0-100) [21, 29]: 90
- Wheat plant response rating (0 to 100 scale) [21, 30]: 70
- Galium plant response rating (0-100) [22, 29]: 80
- Galium plant response rating (0 to 100 scale) [22, 30]: 70
- Kochia plant response rating (0-100) (kochia (Bassia scoparia) [23]; [29]): 70
- Kochia plant response rating (0 to 100 scale) (kochia (Bassia scoparia) [23]; [30]): 20
- Horseweed plant response rating (0-100) [24, 29]: 60
- Horseweed plant response rating (0 to 100 scale) [24, 30]: 20
- Corn plant response rating (0-100) (corn (Zea mays) [25]; [29]): 100
- Corn plant response rating (0 to 100 scale) (corn (Zea mays) [25]; [30]): 100
- Ragweed plant response rating (0-100) [26, 29]: 50
- Ragweed plant response rating (0 to 100 scale) [26, 30]: 0
- Blackgrass plant response rating (0-100) [27, 29]: 90
- Blackgrass plant response rating (0 to 100 scale) [27, 30]: 80
